Laboratory results taken from patent US9789181B2, “PAN-DR binding polypeptides and uses thereof” (Epimmune Inc., priority 2009, dated 2017).
Where no end group is shown, it is not given here.

Each sequence was assayed against HLA DRB1 *0101 (Homo sapiens, UniProt P01903+P01911, A100R/D57E/F55L/F60I/F76Y/I96L/L162R/M171V/P40L/Q125E/R42F/V115G/Y59C) (assay: IC50nM to purified HLA | DRB1 *0101).
Method: (§1) Table printed on a drawing sheet, FIG. 1 (contd.)
Head of the field: IC50nM to purified HLA | DRB1 *0101
(§2) First copying reader's note: Continued from the preceding sheet of FIG. 1; decimal commas are used, the analog names give the substituted residues and positions in PADRE, and some values are printed in italics or bold and some SEQ ID NOs bold and underlined without a legend on this sheet.
Where the first naming reader finds the target: head: IC50nM to purified HLA | DRB1 *0101

Sequence | IC50 [nM]
AAAHFVAAYTLKADA [SEQ ID NO: 32] | 5.4
AAAKFVAAWTLKADA [SEQ ID NO: 30] | 5
AAAHFVAAFTLKADA [SEQ ID NO: 33] | 6.7
AAAHFVAANTLKAEA [SEQ ID NO: 39] | 7.1
AAAHFVAAWTLKADA [SEQ ID NO: 31] | 5.1
AAADFVAAYTLHAAA [SEQ ID NO: 42] | 4.8
AAADFVAANTLHAAA [SEQ ID NO: 44] | 7.8
AAADFVAAWTLKAAA [SEQ ID NO: 40] | 7
AAAHFVAAYTLKAEA [SEQ ID NO: 37] | 6.9

These sequences were tested against HLA DRB1 *0301 (Homo sapiens, UniProt P01903+P01911, A100K/A102G/A103R/A169T/F55Y/I96L/K41T/L162R/M171V/P40S/Q125H/Q178H/Q39Y/R42S/S66N/T106N/T262R/W38E/Y61H) (assay: IC50nM to purified HLA | DRB1 *0301).
HLA DRB1 *0301, sequence (P01903 26-254 limits assumed, other chains not shown): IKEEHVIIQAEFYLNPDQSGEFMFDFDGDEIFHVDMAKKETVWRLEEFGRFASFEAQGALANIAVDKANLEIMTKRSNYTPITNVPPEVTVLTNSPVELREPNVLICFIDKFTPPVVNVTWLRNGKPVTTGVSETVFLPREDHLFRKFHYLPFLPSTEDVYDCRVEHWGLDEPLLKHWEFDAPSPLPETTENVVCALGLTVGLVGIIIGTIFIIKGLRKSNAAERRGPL
Method: as §1
Head of the field: IC50nM to purified HLA | DRB1 *0301
as §2
Where the first naming reader finds the target: head: IC50nM to purified HLA | DRB1 *0301

Sequence | IC50 [nM]
AAAKFVAAWTLKADA [SEQ ID NO: 30] | 1160
AAADFVAAYTLHAAA [SEQ ID NO: 42] | 286
AAADFVAANTLHAAA [SEQ ID NO: 44] | 731
AAADFVAAWTLKAAA [SEQ ID NO: 40] | 330

These sequences were tested against HLA DRB1 *0401 (Homo sapiens, UniProt P01903+P01911, A100K/A169T/F76Y/I96L/K127E/L162R/M171V/N62H/P40V/Q125Y/R42H/S133A/S149N/S66Y/V115G/V209L/W38E) (assay: IC50nM to purified HLA | DRB1 *0401).
Method: as §1
Head of the field: IC50nM to purified HLA | DRB1 *0401
as §2
Where the first naming reader finds the target: head: IC50nM to purified HLA | DRB1 *0401

Sequence | IC50 [nM]
AAAHFVAAYTLKADA [SEQ ID NO: 32] | 11
AAAKFVAAWTLKADA [SEQ ID NO: 30] | 7.3
AAAHFVAAFTLKADA [SEQ ID NO: 33] | 15
AAAHFVAANTLKAEA [SEQ ID NO: 39] | 12
AAAHFVAAWTLKADA [SEQ ID NO: 31] | 8.5
AAADFVAAYTLHAAA [SEQ ID NO: 42] | 4.5
AAADFVAANTLHAAA [SEQ ID NO: 44] | 6.6
AAADFVAAWTLKAAA [SEQ ID NO: 40] | 5.1
AAAHFVAAYTLKAEA [SEQ ID NO: 37] | 7.5

Each sequence was assayed against HLA DRB1 *0404 (Homo sapiens, UniProt P01903+P01911, A100R/A169T/F76Y/I96L/K127E/L162R/M171V/N62H/P40V/Q125Y/R42H/S133A/S149N/S66Y/V209L/W38E) (assay: IC50nM to purified HLA | DRB1 *0404).
Method: as §1
Head of the field: IC50nM to purified HLA | DRB1 *0404
as §2
Where the first naming reader finds the target: head: IC50nM to purified HLA | DRB1 *0404

Sequence | IC50 [nM]
AAAHFVAAYTLKADA [SEQ ID NO: 32] | 9.6
AAAKFVAAWTLKADA [SEQ ID NO: 30] | 9.7
AAAHFVAAFTLKADA [SEQ ID NO: 33] | 9.5
AAAHFVAANTLKAEA [SEQ ID NO: 39] | 14
AAAHFVAAWTLKADA [SEQ ID NO: 31] | 7.1
AAADFVAAYTLHAAA [SEQ ID NO: 42] | 5.3
AAADFVAANTLHAAA [SEQ ID NO: 44] | 8.6
AAADFVAAWTLKAAA [SEQ ID NO: 40] | 4
AAAHFVAAYTLKAEA [SEQ ID NO: 37] | 5.3

Each sequence was assayed against HLA DRB1 *0802 (Homo sapiens, UniProt P01903+P01911, A100R/A103L/A169T/F76Y/H45Y/I96F/K41T/L162R/M171V/P40S/Q125H/Q178H/Q39Y/Q99D/R218S/R42G/S66Y/V115G/W38E) (assay: IC50nM to purified HLA | DRB1 *0802).
Method: as §1
Head of the field: IC50nM to purified HLA | DRB1 *0802
as §2
Where the first naming reader finds the target: head: IC50nM to purified HLA | DRB1 *0802

Sequence | IC50 [nM]
AAAHFVAANTLKAEA [SEQ ID NO: 39] | 64
AAAHFVAAWTLKADA [SEQ ID NO: 31] | 24
AAADFVAAYTLHAAA [SEQ ID NO: 42] | 14
AAADFVAANTLHAAA [SEQ ID NO: 44] | 44
AAADFVAAWTLKAAA [SEQ ID NO: 40] | 17

What follows are sequences tested against HLA DRB1 *0901 (Homo sapiens, UniProt P01903+P01911, A100R/A103E/D57H/D86V/F55Y/F60I/F76Y/I96F/K127E/L162R/M171V/P40D/Q125H/Q99R/R33Q/R42F/S133A/S66N/T210M/V115G/W38K/Y107V/Y59G/Y89S) (assay: IC50nM to purified HLA | DRB1 *0901).
Method: as §1
Head of the field: IC50nM to purified HLA | DRB1 *0901
as §2
Where the first naming reader finds the target: head: IC50nM to purified HLA | DRB1 *0901

Sequence | IC50 [nM]
AAAHFVAAYTLKADA [SEQ ID NO: 32] | 31
AAAKFVAAWTLKADA [SEQ ID NO: 30] | 27
AAAHFVAAFTLKADA [SEQ ID NO: 33] | 30
AAADFVAAYTLHAAA [SEQ ID NO: 42] | 32
AAADFVAANTLHAAA [SEQ ID NO: 44] | 82
AAAHFVAAYTLKAEA [SEQ ID NO: 37] | 35

What follows are sequences tested against HLA DRB1 *1101 (Homo sapiens, UniProt P01903+P01911, A100R/A169T/A87E/I96F/K41T/L162R/M171V/P40S/Q125H/Q178H/Q39Y/Q99D/R42S/S66Y/T262R/V115G/W38E) (assay: IC50nM to purified HLA | DRB1 *1101).
HLA DRB1 *1101, sequence (P01903 26-254 limits assumed, other chains not shown): as above
Method: as §1
Head of the field: IC50nM to purified HLA | DRB1 *1101
as §2
Where the first naming reader finds the target: head: IC50nM to purified HLA | DRB1 *1101

Sequence | IC50 [nM]
AAAHFVAAFTLKADA [SEQ ID NO: 33] | 76
AAADFVAAYTLHAAA [SEQ ID NO: 42] | 40
AAADFVAAWTLKAAA [SEQ ID NO: 40] | 19
AAAHFVAAYTLKAEA [SEQ ID NO: 37] | 44

Each sequence was assayed against HLA DRB1 *1501 (Homo sapiens, UniProt P01903+P01911) (assay: IC50nM to purified HLA | DRB1 *1501).
Method: as §1
Head of the field: IC50nM to purified HLA | DRB1 *1501
as §2
Where the first naming reader finds the target: head: IC50nM to purified HLA | DRB1 *1501

Sequence | IC50 [nM]
AAAHFVAAYTLKADA [SEQ ID NO: 32] | 11
AAAKFVAAWTLKADA [SEQ ID NO: 30] | 19
AAAHFVAAFTLKADA [SEQ ID NO: 33] | 37
AAADFVAAYTLHAAA [SEQ ID NO: 42] | 19
AAADFVAANTLHAAA [SEQ ID NO: 44] | 580
AAADFVAAWTLKAAA [SEQ ID NO: 40] | 64
AAAHFVAAYTLKAEA [SEQ ID NO: 37] | 10

These sequences were tested against HLA DRB4 *0101 (Homo sapiens, UniProt P01903+P13762, G164S) (assay: IC50nM to purified HLA | DRB4 *0101).
HLA DRB4 *0101, sequence (P01903 26-254 limits assumed): as the sequence (P01903 26-254 limits assumed, other chains not shown) above
HLA DRB4 *0101, sequence (P13762 whole entry G164S): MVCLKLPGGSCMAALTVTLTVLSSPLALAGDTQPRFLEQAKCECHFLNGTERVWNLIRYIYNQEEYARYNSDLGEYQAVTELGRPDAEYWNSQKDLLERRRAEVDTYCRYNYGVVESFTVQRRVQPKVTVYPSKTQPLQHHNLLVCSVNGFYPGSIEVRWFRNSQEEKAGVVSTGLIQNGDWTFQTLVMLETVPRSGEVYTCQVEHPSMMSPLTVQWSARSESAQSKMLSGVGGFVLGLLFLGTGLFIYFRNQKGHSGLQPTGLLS
Method: as §1
Head of the field: IC50nM to purified HLA | DRB4 *0101
as §2
Where the first naming reader finds the target: head: IC50nM to purified HLA | DRB4 *0101

Sequence | IC50 [nM]
AAAHFVAAFTLKADA [SEQ ID NO: 33] | 948
AAAHFVAANTLKAEA [SEQ ID NO: 39] | 941
AAAHFVAAWTLKADA [SEQ ID NO: 31] | 2100
AAADFVAAWTLKAAA [SEQ ID NO: 40] | 1540
AAAHFVAAYTLKAEA [SEQ ID NO: 37] | 721

What follows are sequences tested against HLA DRB1 *0405 (Homo sapiens, UniProt P01903+P01911, A100R/A169T/D86S/F76Y/I96L/K127E/L162R/M171V/N62H/P40V/Q125Y/R42H/S133A/S149N/S66Y/V115G/V209L/W38E) (assay: IC50nM to purified HLA | DRB1 *0405).
Method: as §1
Head of the field: IC50nM to purified HLA | DRB1 *0405
as §2
Where the first naming reader finds the target: head: IC50nM to purified HLA | DRB1 *0405

Sequence | IC50 [nM]
AAAKFVAAWTLKADA [SEQ ID NO: 30] | 17
AAAHFVAAFTLKADA [SEQ ID NO: 33] | 19
AAAHFVAANTLKAEA [SEQ ID NO: 39] | 36
AAAHFVAAWTLKADA [SEQ ID NO: 31] | 16
AAADFVAAYTLHAAA [SEQ ID NO: 42] | 21
AAADFVAAWTLKAAA [SEQ ID NO: 40] | 30
AAAHFVAAYTLKAEA [SEQ ID NO: 37] | 11

These sequences were tested against HLA DRB1 *0701 (Homo sapiens, UniProt P01903+P01911, A100R/A102G/A103Q/D57E/D86V/E43K/F76Y/K127E/L162R/M171V/P40G/Q125H/Q99D/R33Q/R42Y/R54Q/S133A/S66F/T210M/V115G/Y107V/Y59L/Y89S) (assay: IC50nM to purified HLA | DRB1 *0701).
Method: as §1
Head of the field: IC50nM to purified HLA | DRB1 *0701
as §2
Where the first naming reader finds the target: head: IC50nM to purified HLA | DRB1 *0701

Sequence | IC50 [nM]
AAAHFVAAYTLKADA [SEQ ID NO: 32] | 48
AAAHFVAAFTLKADA [SEQ ID NO: 33] | 83
AAAHFVAANTLKAEA [SEQ ID NO: 39] | 83
AAADFVAAYTLHAAA [SEQ ID NO: 42] | 182
AAADFVAANTLHAAA [SEQ ID NO: 44] | 196
AAADFVAAWTLKAAA [SEQ ID NO: 40] | 195

These sequences were tested against HLA DRB1 *1302 (Homo sapiens, UniProt P01903+P01911, A100E/A169T/K41T/L162R/M171V/P40S/Q125H/Q178H/Q39Y/Q99D/R42S/S66N/T262R/V115G/W38E/Y61H) (assay: IC50nM to purified HLA | DRB1 *1302).
HLA DRB1 *1302, sequence (P01903 26-254 limits assumed, other chains not shown): as the sequence (P01903 26-254 limits assumed, other chains not shown) above
Method: as §1
Head of the field: IC50nM to purified HLA | DRB1 *1302
as §2
Where the first naming reader finds the target: head: IC50nM to purified HLA | DRB1 *1302

Sequence | IC50 [nM]
AAAKFVAAWTLKADA [SEQ ID NO: 30] | 807
AAAHFVAAFTLKADA [SEQ ID NO: 33] | 594
AAAHFVAANTLKAEA [SEQ ID NO: 39] | 234
AAAHFVAAWTLKADA [SEQ ID NO: 31] | 875
AAADFVAANTLHAAA [SEQ ID NO: 44] | 187
AAADFVAAWTLKAAA [SEQ ID NO: 40] | 4000
AAAHFVAAYTLKAEA [SEQ ID NO: 37] | 1010

Each sequence was assayed against HLA DRB5 *0101 (Homo sapiens, UniProt P01903+Q30154) (assay: IC50nM to purified HLA | DRB5 *0101).
Method: as §1
Head of the field: IC50nM to purified HLA | DRB5 *0101
as §2
Where the first naming reader finds the target: head: IC50nM to purified HLA | DRB5 *0101

Sequence | IC50 [nM]
AAAHFVAAYTLKADA [SEQ ID NO: 32] | 17
AAAKFVAAWTLKADA [SEQ ID NO: 30] | 19
AAAHFVAAWTLKADA [SEQ ID NO: 31] | 23
AAADFVAANTLHAAA [SEQ ID NO: 44] | 80
AAAHFVAAYTLKAEA [SEQ ID NO: 37] | 16
